# From patent US20240216321A1, “FERMENTATIVELY-PRODUCED RETINOID CONTAINING COMPOSITIONS, AND THE METHDOS OF MAKING AND USING THE SAME” (DSM IP Assets B.V., priority 2022, published 2024)
# How the values were obtained:
# Corynebacterium xerosis = assay: Antimicrobial efficacy test in analogy to challenge test NF EN ISO11930; assay type: cell-based; settings: initial inoculum count 100,000, 22° C.
# Procedure: (§1) The antimicrobial efficacy of retinol and retinyl acetate having different cis/trans ratio has been assessed in analogy to the regulatory challenge test method (NF EN ISO11930). Thus, solutions of the respective retinol and retinyl acetate mixtures (reference samples and inventive mixtures with a purity of about 98%) were prepared in physiological serum with 0.85 wt.-% NaCl under sterile conditions. The presence of cis and trans-isomers in the retinoid component were calculated by reversed phase C4 HPLC analysis, with the total cis-isomer content in the retinoid component, relative to the total weight of trans-isomers in the retinoid component detected, is reported in Table 4 below along the row labelled “cis/trans ratio”. Also reported for each sample was the specific retinoid used as the retinoid component (either retinyl acetate or retinol for all samples). The solutions of the active(s) were then deposed in 96-deep well plates (1.6 ml/well) at a concentration as specified by wt. % in Table 4 below. The wells were contaminated with Cutibacterium acnes, Corynebacterium xerosis, and Malassezia furfur, respectively, to obtain the initial contamination. The initial contamination count, which is listed as “initial inoculum count” for each test as indicated in Tale 4 below, was determined to be 100,000. After contamination, each well was thoroughly mixed to ensure a homogeneous distribution of the microbes. Then each plate was incubated at 22° C. for 24 h. The counting of the (remaining) population was carried out 24 hours after contamination, as indicated below in Table 4 by the rows labelled “24 hr”. The change in count from the initial inoculum count to the 24-hour count (in terms of percentage) is reflected in the Table below by the rows labelled “A R”.
# Cutibacterium acnes = assay: as above; assay type: cell-based; settings: for 24 hr count (remaining population) / Δ R (change from initial inoculum count to 24-hour count): initial inoculum count 100,000, 22° C.; for reduction of Cutibacterium acnes: stated as reduction
# Procedure: as §1
# [1] = assay type: physicochemical
# Procedure: Retinoid quantification: Analysis of retinoids were carried out with a C4 reverse phase retinoid method (see below). The addition of all added intermediates gives the total amount of retinoids.
# C4 reverse phase chromatography. For exact determination of discrete retinoids, the long run reverse phase system was used. Analytes were separated using the Agilent 1290 instrument with YMC Pro C4, 150×3.0 mm, 3 um column (YMC America, Allentown PA) stationary phase, and a 5 μl injection loop volume and column and sample tray controlled at 23° C. with gradients described in Table B. Analytes were detected at 210, 230 nm and 325 nm and the peak's identity was verified with LCMS. The analytes were separated as discrete peaks that were assigned according to the table below. […]
# To determine oxidative stability of examples 1-5, each sample, the preparation of which is described above, was placed under ambient conditions (20° C. and 50% relative humidity preferred) in its own small brown glass vial, blanketed with argon, and put into an oven preheated to 105° C. Thereafter, the samples remained in the oven for 3 hours. After three hours the samples were taken out of the oven and analyzed via the same method(s) utilized to determine “initial” values as reported in Table 1 above. The values for each component were measured after the thermal stress test and compared to the values determined prior to the test. For clarity, example 1 indicated a total retinoid component (see row in Table 1 above labelled “all retinyl acetate (all species)”) prior to the thermal stress test of 90.53%; the change indicated in Table 2 of −1.31% below signifies that the total retinoid component determined after the thermal stress test was 89.22% (by weight relative to the entire sample weight).
# Malassezia furfur = assay: Antimicrobial efficacy test in analogy to challenge test NF EN ISO11930; assay type: cell-based; settings: concentration 0.25%, initial inoculum count 100,000, 22° C.
# Procedure: as §1
# [2] = 105° C. for 3 hours, blanketed with argon, change vs value before test
Structure (SMILES),24 hr count (remaining population) (Corynebacterium xerosis; concentration 0.1%),Δ R (change from initial inoculum count to 24-hour count) (Corynebacterium xerosis; concentration 0.1%) [%],24 hr count (remaining population) (Corynebacterium xerosis; concentration 0.25%),Δ R (change from initial inoculum count to 24-hour count) (Corynebacterium xerosis; concentration 0.25%) [%],24 hr count (remaining population) (Cutibacterium acnes; concentration 0.1%),Δ R (change from initial inoculum count to 24-hour count) (Cutibacterium acnes; concentration 0.1%) [%],24 hr count (remaining population) (Cutibacterium acnes; concentration 0.25%),Δ R (change from initial inoculum count to 24-hour count) (Cutibacterium acnes; concentration 0.25%) [%],24 hr count (remaining population) (Malassezia furfur),Δ R (change from initial inoculum count to 24-hour count) (Malassezia furfur) [%],reduction of Cutibacterium acnes (Cutibacterium acnes; retinyl acetate mixtures),other results
"CC(=O)OC/C=C(C)/C=C/C=C(C)/C=C/C1=C(C)CCCC1(C)C [Ex. 7, Retinyl acetate]","370,000",270,"40,000",−60,"370,000",270,–,–,–,–,–,–
"CC(=O)OC/C=C(C)/C=C/C=C(C)/C=C/C1=C(C)CCCC1(C)C [Example 5, retinyl acetate]",–,–,–,–,–,–,–,–,–,–,–,"9Z-retinal, % change [1, 2]: 0.00%; Dihydro-actinidiole, % change [1, 2]: −0.01%; Dihydro-retinol, % change [1, 2]: 0.00%; E-Retinal, % change [1, 2]: −0.01%; E-retinol, % change [1, 2]: −0.01%; Retinyl acetate (all species), % change [1, 2]: −5.50%; Z-retinol, % change [1, 2]: −0.04%; cis-retinyl acetate, % change [1, 2]: −0.22%; Ethanol, % change ([1]; 105° C. for 3 hours, blanketed with argon, change vs value before test (wt. % of entire composition)): 0.00%; reduction in retinyl acetate (loss of retinyl acetate content) after heat stability test ([1]; 3 h): 5.50%"
"CC1=C(/C=C/C(C)=C/C=C/C(C)=C/CO)C(C)(C)CCC1 [Ex. 10, Retinol]",–,–,–,–,–,–,"1,000",−99,"100,000",0,–,–
"CC(=O)OC/C=C(C)/C=C/C=C(C)/C=C/C1=C(C)CCCC1(C)C [Ex. 9, Retinyl acetate]","70,000",−30,"10,000",−90,"70,000",−30,–,–,–,–,about 30%,–
"CC1=C(/C=C/C(C)=C/C=C/C(C)=C/CO)C(C)(C)CCC1 [Ex. 11, Retinol]",–,–,–,–,–,–,700,−99.3,"40,000",−60,–,reduction of Cutibacterium acnes (Cutibacterium acnes; retinol compositions): 99.3%
"CC(=O)OC/C=C(C)/C=C/C=C(C)/C=C/C1=C(C)CCCC1(C)C [Ex. 8, Retinyl acetate]","70,000",−30,"37,000",−63,"70,000",−30,–,–,–,–,about 30%,–
